Measured values reported in article PMC3365106, “Expression of Transient Receptor Potential Ankyrin 1 (TRPA1) and Its Role in Insulin Release from Rat Pancreatic Beta Cells” (PLoS ONE, 2012).
pEC50: −log10 of the molar value.

Target: transient receptor potential ankyrin 1 (TRPA1) (Rattus norvegicus, UniProt Q6RI86)
Test: whole-cell patch clamp in primary rat beta cells (MG in pipette); also currents in TRPA1-transfected HEK293T cells and siRNA-sensitive Ca2+ influx
Assay type: cell-based

Sequence of transient receptor potential ankyrin 1 (TRPA1) (Q6RI86 whole entry): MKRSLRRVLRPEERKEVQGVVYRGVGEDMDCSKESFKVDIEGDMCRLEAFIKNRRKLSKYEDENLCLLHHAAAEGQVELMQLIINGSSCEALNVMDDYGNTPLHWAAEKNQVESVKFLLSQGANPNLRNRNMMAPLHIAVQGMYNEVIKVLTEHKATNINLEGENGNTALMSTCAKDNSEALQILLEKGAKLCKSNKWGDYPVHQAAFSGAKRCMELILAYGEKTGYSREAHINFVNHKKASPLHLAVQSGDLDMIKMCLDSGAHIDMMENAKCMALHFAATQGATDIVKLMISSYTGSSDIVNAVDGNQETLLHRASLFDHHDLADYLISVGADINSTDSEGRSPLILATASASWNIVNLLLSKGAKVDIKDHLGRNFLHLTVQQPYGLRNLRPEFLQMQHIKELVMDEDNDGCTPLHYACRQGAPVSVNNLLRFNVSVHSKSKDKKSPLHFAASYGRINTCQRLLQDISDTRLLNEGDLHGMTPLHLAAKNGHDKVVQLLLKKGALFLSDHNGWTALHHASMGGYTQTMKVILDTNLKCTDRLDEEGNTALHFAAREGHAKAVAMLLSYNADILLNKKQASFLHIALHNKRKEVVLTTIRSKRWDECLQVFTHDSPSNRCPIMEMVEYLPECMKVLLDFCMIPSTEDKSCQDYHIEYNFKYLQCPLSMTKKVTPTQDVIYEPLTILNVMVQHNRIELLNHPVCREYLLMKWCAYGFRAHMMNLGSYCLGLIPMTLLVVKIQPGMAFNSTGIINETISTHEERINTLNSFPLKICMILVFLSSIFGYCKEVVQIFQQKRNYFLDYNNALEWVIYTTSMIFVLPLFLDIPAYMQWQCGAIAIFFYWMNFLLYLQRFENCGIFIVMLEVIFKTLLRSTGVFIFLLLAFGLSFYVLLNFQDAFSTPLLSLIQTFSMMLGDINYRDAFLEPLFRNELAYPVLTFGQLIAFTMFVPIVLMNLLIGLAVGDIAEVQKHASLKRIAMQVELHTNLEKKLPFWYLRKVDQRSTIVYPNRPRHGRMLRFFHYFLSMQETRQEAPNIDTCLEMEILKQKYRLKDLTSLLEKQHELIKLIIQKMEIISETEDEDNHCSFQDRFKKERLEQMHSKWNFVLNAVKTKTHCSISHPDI

## CC(=O)C=O [MG, methylglyoxal]
  pEC50: 6.23
